Patent US20060154984A1, “Therapeutic use of acyl glycerols and the nitrogen- and sulphur- containing analogues thereof” (priority 2003, published 2006)

Key:
[1] = Plasma lipids in Sprague Dawley rats according to the formulation used; type: in vivo, rat; conditions: gavage every day for 15 days, with Cremophor RH40 compared with CMC and Solutol HS15
Procedure: A 0.5% (mN) solution of CMC was prepared in water and mixed with 0.1% (VN) Tween 80, then stirred overnight. The inventive compounds were then added and dissolved by stirring and ultrasonication for 30 minutes at 60° C.
The emulsion comprising an inventive compound and a surfactant, Cremophor® RH40 (Polyoxyl 40 Hydrogenated Castor Oil) or Solutol® HS15 (polyethylene glycol 660 12-hydroxystearate) was prepared as follows: the inventive compound was dissolved in a solution of Cremophor® RH40 or Solutol® HS15 previously heated in a water-bath at 60° C. in a ratio for example of 6:1 (m/m). The mixture was placed in a water-bath at 60° C. until a homogeneous mixture was obtained. Said mixture was then dispersed by ultrasonication for 20 minutes at 60° C., at which time the solution became translucid. While stirring, water (MilliQ) preheated at 60° C. was added to the solution to give the desired concentration of the compound. The solution was then mixed on a Vortex® mixer, returned to the water-bath (60° C.) and optionally dispersed by ultrasonication for 30 minutes.
To this end, the compounds were administered by gavage to Sprague Dawley rats every day for 15 days. […]

[2] = test system: LDL; test: LDL oxidation by copper, conjugated diene formation (OD 234 nm); type: biochemical; conditions: 10^−4 M
Procedure: Oxidation of LDL is an important modification which plays a major role in the onset and development of atherosclerosis (Jurgens, Hoff et al. 1987). […] Unless otherwise indicated, all reagents were from Sigma (St Quentin, France).
LDL were prepared as described by Lebeau et al. (Lebeau, Furman et al. 2000). The solutions of the test compounds were prepared at 10^−2 M in ethanol and diluted in PBS so that the final concentration ranged from 0.1 to 100 μM with a total ethanol concentration of 1% (VN).
Before oxidation, EDTA was removed from the LDL preparation by dialysis. The oxidation reaction was then carried out at 30° C. by adding 100 μl of 16.6 μM CuSO4 to 800 μl of LDL (125 μg protein/ml) and 100 μl of a test compound solution. The formation of dienes, the species to be followed, was measured by the optical density at 234 nm in the samples treated with the compounds in the presence or absence of copper. Optical density at 234 nm was measured every 10 minutes for 8 hours on a thermostated spectrophotometer (Kontron Uvikon 930). The analyses were carried out in triplicate. A compound was considered to have antioxidant activity when it shifted the lag phase latency relative to the control sample. […] FIG. 4 presents an example of the results obtained with the inventive compounds.

[3] = test system: dopaminergic neurons; test: Rat model of Parkinson's disease (6-OHDA), immunohistochemistry with anti-TH antibody; type: in vivo; conditions: Wistar rats, 300 mg/kg per day in diet, 6-OHDA lesion; versus rats fed a normal diet
Procedure: Adult male Wistar rats (280-300 g) were maintained on a 12-hour light/dark cycle at a constant temperature of 20±3° C. Animals had access to food and water ad libitum and weight gain was recorded.
Animals were fed a normal diet or a diet supplemented with the inventive compounds (300 mg/kg per day) for 7 days before induction of the dopaminergic lesion and for 15 days after induction of same.
Seven days after commencement of treatment with the inventive compounds, the rats were stereotactically injected with 6-OHDA (4 μg for 8 min) or buffer (sham rats) in the left part of the median tract of the telencephalon to induce striatonigral denervation.
Tyrosine hydroxylase (TH) is an enzyme which catalyzes the transformation of tyrosine to […]. It is used to label dopaminergic neurons. After the apomorphine sensitization test, the animals were sacrificed and the brains were removed. Brain slices were incubated with anti-TH antibody (SCBT, Santa Cruz, Calif.) and then with a second biotinylated antibody. Visualization was with the ABC staining system kit (Tebu) according to the supplier's instructions.
Viable cells labelled with anti-TH antibody (TH+ cells) were counted. […]

Question: For `CCCCCCCCCCCCCCSCC(=O)OCC(COC(=O)CSCCCCCCCCCCCCCC)OC(=O)CSCCCCCCCCCCCCCC` [Ex 4a, 1,2,3-tritetradecylthioacetylglycerol], which plasma triglycerides [1] is on record?
Answer: larger decrease

Question: And the total plasma cholesterol [1]?
Answer: larger decrease

Question: What about the “LDL oxidation rate (rate of conjugated diene formation)” value ([2]; copper alone 3 nmol/min/mg of LDL) of the same compound?
Answer: 1 nmol/min/mg of LDL

Question: And the “decrease in the maximum amount of conjugated dienes formed” value ([2]; copper alone 496 nmol per mg of LDL)?
Answer: 60%

Question: And the “lag phase for conjugated diene formation” value ([2]; copper alone 104 minutes)?
Answer: 270 min

Question: What about the “decrease in the oxidation rate” value ([2]; relative to copper alone) of the same compound?
Answer: 66%

Question: And the “increase in the lag phase” value ([2]; relative to copper alone)?
Answer: 160%

Question: And the “number of neurons labelled with anti-tyrosine hydroxylase (TH+ neurons)” value [3]?
Answer: greater number of neurons
